Key:
Assay type in all cases: cell-based
VEGF-A = target: T1, VEGF-A (Homo sapiens, UniProt P15692); test: VEGF-A induced sprouting of HUVEC, spheroid-based cellular angiogenesis assay; conditions: VEGF-A 25 ng/mL preincubated with compound, 24 h, read-out: VEGF-A1 IC50
T1 construct: purchased ProQinase GmbH
T1 sequence (P15692 27-191 isoform P15692-4): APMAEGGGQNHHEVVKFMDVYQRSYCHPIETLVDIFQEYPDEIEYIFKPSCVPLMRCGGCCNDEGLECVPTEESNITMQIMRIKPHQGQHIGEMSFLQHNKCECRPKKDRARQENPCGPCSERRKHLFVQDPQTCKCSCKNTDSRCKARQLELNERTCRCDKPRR
Procedure: Aim of this in vitro method is to assess compounds effects on FGF-2, FGF-1, or VEGF-A induced sprouting of human umbilical vein endothelial cells (HUVEC) in the spheroid-based cellular angiogenesis assay. Before adding the growth factors to the cells, they were preincubated with the compound. Sunitinib was tested as a control (without preincubation).
IC50 values determined for the tested compounds are expressed in microM [μM] and the values for the inhibition of FGF-1, FGF2 and VEGF-A induced growth (sprouting) are listed after each compound in the examples after chemical characterization.
Sprouting test was performed on the compounds dissolved in DMSO to reach 100-fold concentrated stock solutions and dissolved in culture media. Sunitinib as reference compound was provided by ProQinase GmbH. Growth factors were purchased from rhFGF-basic (FGF-2), Peprotech, New Jersey, USA, #100-18C, Lot #0415571; rhFGF-acidic (FGF-1), Peprotech, New Jersey, USA, #100-17A, Lot #031207; hVEGF-A165 (ProQinase GmbH, Freiburg, Germany; 05.02.2010) were used for stimulation of HUVEC cells growth.
Test system: Endothelial cells from human umbilical vein (HUVEC) from pooled donors were stored frozen with 70% medium, 20% FCS, 10% DMSO at about 1×10^6 cells/ampoule. HUVEC cells, primary human umbilical vein endothelial cells (PromoCell, Heidelberg, Germany), were used after passage 3 to 4. Morphology of the cells are adherent, cobblestone-like growing as monolayer and were cultured in endothelial cell growth and basal medium (ECGM/ECBM, PromoCell). The subculture was split 1:3; every 3-5 days, seed out at ca. 1×10^4 cells/cm^2 and incubated at 37° C. with 5% CO2 with a doubling time 24-48 hours
Dilution of test compounds: 100× concentrated solutions (concerning to the final assay concentrations) of each test compound were prepared with the appropriate solvent (in DMSO or in water). These 100×compound solutions were further diluted in endothelial cell growth and basal medium (ECBM) 1:7.5 to get a 13.33× concentrated solution. 75 μl of the 13.33×solution was subsequently mixed with 25 μl of 40× concentrated stimulus (solved in ECBM), resulting in a 10×concentrated stimulus/compound mixture. This mixture (100 μl) was incubated for 30 min at 37° C. and then added to 900 μl gel, containing the HUVEC spheroids (resulting in the final assay concentration).
Test method: the experiments were pursued in modification of the originally published protocol (Korff and Augustin: J Cell Sci 112: 3249-58, 1999). In brief, spheroids were prepared as described (Korff and Augustin: J Cell Biol 143: 1341-52, 1998) by pipetting 400 HUVEC in a hanging drop on plastic dishes to allow overnight spheroid aggregation. 50 HUVEC spheroids were then seeded in 0.9 ml of a collagen gel and pipetted into individual wells of a 24 well plate to allow polymerization. The test compounds were preincubated with the growth factors (FGF-1, FGF-2 or VEGF-A final concentration 25 ng/mL) in a 10-fold concentrated solution and subsequently, 100 μl of this solution was added on top of the polymerized gel. All compounds were diluted in solvent (DMSO or water) as 100×stocks first (which means 100×stocks of each final assay concentration were prepared in solvent). Subsequently, these stocks were further diluted in medium (resulting in the 13.33×stocks of each final assay concentration) with final concentrations tested: 100, 50, 25, 12.5, 6.25, 3.13 and 1.56×10^−6 M). Plates were incubated at 37° C. for 24 hours and fixed by adding 4% PFA (Roth, Karlsruhe, Germany).
Quantification of growth factor inhibition: sprouting intensity of HUVEC spheroids treated with the growth factor and the inhibitors were quantitated by an image analysis system determining the cumulative sprout length per spheroid (CSL).

FGF-1 = target: T2, FGF-1 (Homo sapiens, UniProt P05230); test: FGF-1 induced sprouting of HUVEC, spheroid-based cellular angiogenesis assay; conditions: FGF-1 25 ng/mL preincubated with compound, 24 h
T2 construct: purchased Peprotech 100-17A
Summary of the method: (§1)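 Spheroids of 400 HUVEC (passage 3–4), embedded in collagen gel, were stimulated with FGF-1, FGF-2 or VEGF-A (final 25 ng/mL) preincubated 30 min at 37°C with compound (final 1.56–100 μM).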

VEGFR-2 = target: T3, VEGFR-2 (Homo sapiens, UniProt P35968); test: VEGF-165 induced phosphorylation of VEGF-Receptor on HUVEC; conditions: HUVEC preincubated 60 min, VEGF165 25 ng/mL 2 min; read-out: VEGFR-Phosphorylation inhibition IC50
T3 construct: endogenous in cells; host or cells: primary HUVEC

FGF-2 = target: T4, FGF-2 (Homo sapiens, UniProt P09038); test: FGF-2 induced sprouting of HUVEC, spheroid-based cellular angiogenesis assay; conditions: FGF-2 25 ng/mL preincubated with compound, 24 h
T4 construct: purchased Peprotech 100-18C
Summary of the method: as §1

Human neutrophils [1] = test: Inhibition of ROS production in human neutrophils (isoluminol chemiluminescence); conditions: Homo sapiens, Neutrophil, fMLP+TNF-α stimulated PMN
Summary of the method: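 Neutrophils from healthy-donor buffy coats (3×10^6/ml in HBSS with Ca/Mg) pre-incubated 30 min at 37° C with compound (0.1–10 μM), primed with TNF-α 20 ng/ml for 10 min, then added to fibrinogen-coated wells. Isoluminol/HRP chemiluminescence recorded every 25 sec for 250 sec after fMLP (1 μM), background-subtracted.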

Human neutrophils [2] = test: Neutrophil adhesion under static conditions; conditions: fMLP-stimulated adhesion to fibrinogen; method: 40 μM and 80 μM, concentration of the value not stated
Summary of the method: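 Donor buffy-coat neutrophils (3×10^6/ml, PBS with Ca/Mg, 10% FCS, pH 7.2) preincubated 30 min at 37° C with 40 μM or 80 μM compound, then stimulated 1 min at 37° C with 1 nM fMLP on fibrinogen-coated glass. Adherent cells fixed and counted by computer; mean ± SD, unpaired t-test.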

T2 sequence (P05230 whole entry): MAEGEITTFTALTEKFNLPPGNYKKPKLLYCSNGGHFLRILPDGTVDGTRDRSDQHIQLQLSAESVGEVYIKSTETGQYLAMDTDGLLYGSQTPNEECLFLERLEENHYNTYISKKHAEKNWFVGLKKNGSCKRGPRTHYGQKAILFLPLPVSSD
T3 sequence (P35968 20-1356): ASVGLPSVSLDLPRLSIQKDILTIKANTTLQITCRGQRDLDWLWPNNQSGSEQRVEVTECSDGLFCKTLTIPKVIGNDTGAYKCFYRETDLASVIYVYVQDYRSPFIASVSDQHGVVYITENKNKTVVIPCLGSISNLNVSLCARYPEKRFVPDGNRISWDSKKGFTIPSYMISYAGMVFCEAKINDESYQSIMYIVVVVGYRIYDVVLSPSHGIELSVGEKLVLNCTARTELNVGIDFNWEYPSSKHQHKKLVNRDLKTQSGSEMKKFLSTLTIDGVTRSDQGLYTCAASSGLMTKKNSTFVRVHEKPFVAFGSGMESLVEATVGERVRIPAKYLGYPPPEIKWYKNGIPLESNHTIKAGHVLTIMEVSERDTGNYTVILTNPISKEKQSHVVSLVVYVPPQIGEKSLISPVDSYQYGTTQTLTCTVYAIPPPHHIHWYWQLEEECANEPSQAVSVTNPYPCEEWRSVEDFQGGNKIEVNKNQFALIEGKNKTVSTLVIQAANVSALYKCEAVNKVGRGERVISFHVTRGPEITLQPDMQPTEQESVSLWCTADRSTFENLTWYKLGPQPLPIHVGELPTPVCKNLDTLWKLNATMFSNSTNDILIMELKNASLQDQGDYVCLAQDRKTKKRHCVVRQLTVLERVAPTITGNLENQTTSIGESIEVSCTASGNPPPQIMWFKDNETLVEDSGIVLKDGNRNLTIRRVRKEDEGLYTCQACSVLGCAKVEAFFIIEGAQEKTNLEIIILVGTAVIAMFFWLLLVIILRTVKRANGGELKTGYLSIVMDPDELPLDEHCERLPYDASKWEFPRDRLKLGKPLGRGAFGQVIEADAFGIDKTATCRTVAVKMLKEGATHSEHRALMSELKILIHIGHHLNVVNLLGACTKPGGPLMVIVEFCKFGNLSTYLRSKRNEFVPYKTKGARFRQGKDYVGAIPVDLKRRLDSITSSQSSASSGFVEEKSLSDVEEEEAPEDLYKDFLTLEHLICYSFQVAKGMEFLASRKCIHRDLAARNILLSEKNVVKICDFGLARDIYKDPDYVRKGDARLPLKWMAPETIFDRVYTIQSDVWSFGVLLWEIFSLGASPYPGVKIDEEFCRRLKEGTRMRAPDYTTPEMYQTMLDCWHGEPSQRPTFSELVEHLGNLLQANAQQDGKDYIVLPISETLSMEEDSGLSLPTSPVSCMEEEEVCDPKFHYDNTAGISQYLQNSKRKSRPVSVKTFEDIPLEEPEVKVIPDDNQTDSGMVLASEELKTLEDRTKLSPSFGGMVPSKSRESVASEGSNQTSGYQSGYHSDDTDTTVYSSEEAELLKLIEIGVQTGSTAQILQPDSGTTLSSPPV
T4 sequence (P09038 134-288): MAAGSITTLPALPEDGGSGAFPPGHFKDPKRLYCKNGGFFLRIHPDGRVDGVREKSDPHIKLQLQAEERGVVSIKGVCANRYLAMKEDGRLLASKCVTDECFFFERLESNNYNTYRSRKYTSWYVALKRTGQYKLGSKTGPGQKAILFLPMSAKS

O=C(O)Cc1ccccc1NC(=O)c1cc(O)cc(C(=O)O)c1O [IIa-034a, 3-(2-(carboxymethyl)phenylaminocarbonyl)-2,5-dihydroxybenzoic acid]
IC50 (VEGF-A): 86 µM
IC50 (FGF-1): 22 µM
IC50 (VEGFR-2): ≥ 100 µM
IC50 (FGF-2): 5.7 µM
inhibition at 0.3 µM (Human neutrophils [1]): 69.2%
Neutrophil adhesion inhibition (Human neutrophils [2]): 26.58%

CCOC(=O)c1cc(O)c(C(=O)Nc2ccccc2-c2nnn[nH]2)cc1O [Ia-001a-Tz-E1, ethyl 4-(2-(1H-tetrazol-5-yl)phenylaminocarbonyl)-2,5-dihydroxybenzoate]
IC50 (VEGF-A): ≥ 200 µM
IC50 (FGF-1): ≥ 200 µM
IC50 (VEGFR-2): 3.8 µM
IC50 (FGF-2): ≥ 200 µM
inhibition at 0.3 µM (Human neutrophils [1]): 76%
Neutrophil adhesion inhibition (Human neutrophils [2]): 98.88%

O=C(O)c1cc(O)cc(C(=O)NCc2ccc(O)c(O)c2)c1O [IIa-035a, 3-(3,4-Dihydroxyphenylmethylaminocarbonyl)-2,5-dihydroxybenzoic acid]
IC50 (VEGF-A): 45 µM
IC50 (FGF-1): 16 µM
IC50 (VEGFR-2): 0.52 µM
IC50 (FGF-2): 61 µM
inhibition at 0.3 µM (Human neutrophils [1]): 77%
IC50 (Human neutrophils [1]): 1 µM
Neutrophil adhesion inhibition (Human neutrophils [2]): 36.67%

COC(=O)c1cc(NC(=O)c2cc(O)c(C(=O)Nc3ccccc3-c3nnn[nH]3)cc2O)ccc1O [Ic-001a-Tz/004a-E1, methyl 5-(4-(2-(1H-tetrazol-5-yl)phenylaminocarbonyl)-2,5-dihydroxybenzamido)-2-hydroxybenzoate]
IC50 (VEGF-A): 35 µM
IC50 (FGF-1): 104 µM
IC50 (VEGFR-2): 0.1 µM
inhibition at 0.3 µM (Human neutrophils [1]): 74%
Neutrophil adhesion inhibition (Human neutrophils [2]): 97.56%

O=C(O)c1cc(O)c(C(=O)Nc2cccc(-c3nnn[nH]3)c2)cc1O [Ia-002a-Tz, 4-(3-(1H-tetrazol-5-yl)phenyl-aminocarbonyl)-2,5-dihydroxybenzoic acid]
IC50 (VEGF-A): 57 µM
IC50 (FGF-1): 10 µM
IC50 (VEGFR-2): ≥ 100 µM
IC50 (FGF-2): 53 µM
inhibition at 0.3 µM (Human neutrophils [1]): 66.6%
IC50 (Human neutrophils [1]): 1.86 µM
Neutrophil adhesion inhibition (Human neutrophils [2]): 38.5%

O=C(O)c1cc(O)c(C(=O)Nc2ccc(O)cc2C(=O)O)cc1O [Ia-006a, 4-(2-carboxy-4-hydroxyphenylaminocarbonyl)-2,5-dihydroxybenzoic acid]
IC50 (VEGF-A): ≥ 100 µM
IC50 (FGF-1): 89 µM
IC50 (VEGFR-2): 11.8 µM
inhibition at 0.3 µM (Human neutrophils [1]): 60.6%
IC50 (Human neutrophils [1]): 1.2 µM
Neutrophil adhesion inhibition (Human neutrophils [2]): 25.33%

O=C(O)c1cc(O)c(C(=O)NCCc2ccc(O)c(O)c2)cc1O [Ia-035a-2, 4-(2-(3,4-Dihydroxyphenyl)ethylaminocarbonyl)-2,5-dihydroxybenzoic acid]
IC50 (VEGF-A): 109 µM
IC50 (FGF-1): 10 µM
IC50 (VEGFR-2): 10 µM
IC50 (FGF-2): 65 µM
inhibition at 0.3 µM (Human neutrophils [1]): 58.8%
IC50 (Human neutrophils [1]): 1.1 µM
Neutrophil adhesion inhibition (Human neutrophils [2]): 21.5%

O=C(O)Cc1cc(O)c(C(=O)Nc2cc(C(=O)O)cc(C(=O)O)c2)cc1O [IIIa-015a, 5-(4-(carboxymethyl)-2,5-dihydroxybenzamido)isophthalic acid]
IC50 (VEGF-A): 202 µM
IC50 (FGF-1): 16 µM
IC50 (VEGFR-2): 0.89 µM
IC50 (FGF-2): 114 µM
inhibition at 0.3 µM (Human neutrophils [1]): 78.8%
Neutrophil adhesion inhibition (Human neutrophils [2]): 12.13%

O=C(O)c1cc(O)cc(C(=O)Nc2c(C(=O)O)cccc2C(=O)O)c1O [IIa-013a, 2-(3-carboxy-2,5-dihydroxybenzamido)isophthalic acid]
IC50 (VEGF-A): 34 µM
IC50 (FGF-1): 137 µM
IC50 (VEGFR-2): ≥ 100 µM
IC50 (FGF-2): 12 µM
inhibition at 0.3 µM (Human neutrophils [1]): 57.7%
IC50 (Human neutrophils [1]): 2.54 µM
Neutrophil adhesion inhibition (Human neutrophils [2]): 15.75%

COC(=O)c1cc(O)cc(CS(=O)(=O)Cc2cc(O)cc(C(=O)OC)c2O)c1O [IVc-059a-E2]
IC50 (VEGF-A): ≥ 200 µM
IC50 (FGF-1): 78 µM
IC50 (VEGFR-2): 2.7 µM
IC50 (FGF-2): 94 µM
inhibition at 0.3 µM (Human neutrophils [1]): 45.7%
IC50 (Human neutrophils [1]): 2.64 µM
Neutrophil adhesion inhibition (Human neutrophils [2]): 50.5%

O=C(O)Cc1ccccc1NC(=O)c1cc(O)c(C(=O)O)cc1O [Ia-034a, 4-(2-(carboxymethyl)phenylaminocarbonyl)-2,5-dihydroxybenzoic acid]
IC50 (VEGF-A): 102 µM
IC50 (FGF-1): 79 µM
IC50 (VEGFR-2): ≥ 100 µM
IC50 (FGF-2): 14 µM
inhibition at 0.3 µM (Human neutrophils [1]): 49.1%
IC50 (Human neutrophils [1]): 2.28 µM
Neutrophil adhesion inhibition (Human neutrophils [2]): 15%

From US20230150951A1, “2,5- OR 2,6-DISUBSTITUTED HYDROQUINONE DERIVATIVES WITH AT LEAST ONE CARBOXY, SULFO OR AMIDO GROUP USEFUL AS MEDICAMENTS” (OM PHARMA SA, priority 2020, published 2023)
